This note sets out measurements from PubChem BioAssay (NCI).

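Compound exposure: 48 hours, 5 concentrations, 96-well plates. GI50 is the concentration that inhibits growth by half. TGI marks complete inhibition of growth.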

Assay in all cases: NCI-60 cell line screen, 48 h
The subject of test [1] is 786-0 renal.
For test [2], the system named is DU-145 prostate.
In test [3] the test system is HOP-62 NSCLC.
In test [4] the test system is K-562 leukemia.
Test [5] relates to NCI-H522 lung.
The subject of test [6] is OVCAR-8 ovarian.
The subject of test [7] is SF-268 CNS.
Test [8] deals with SF-539 CNS.
For test [9], the system named is SNB-19 CNS.
Test [10] deals with UO-31 renal.

In the case of `CC(=O)Oc1cc2cnc3c4cc(OC(C)=O)c(OC(C)=O)cc4ccc3c2cc1OC(C)=O`, the GI50 is 2990 nM in test [1]; 2610 nM in [2]; 1860 nM in test [3]; 2080 nM in test [4]; 392 nM in [5]; 1970 nM in test [6]. The GI50 in [7] was 1220 nM; in [8] it was 1300 nM; in [9], 594 nM; in test [10], 472 nM. Further, the TGI in [1] is 16300 nM; in [2] it was over 100000 nM; in [3], 59400 nM; in [4], over 100000 nM; in test [5] it was 4560 nM; in [6] it was 31200 nM. Also, the TGI in test [7] was 17600 nM; in test [8], 4460 nM; in test [9], 65900 nM; in [10], over 100000 nM.

For the molecule `COc1ccc(-c2cc(/C=C/C(=O)c3ccc(N)cc3)[nH]n2)cc1`, the GI50 was 2120 nM in [1]; 1320 nM in [2]; 2800 nM in [3]; 1420 nM in [4]; 1210 nM in test [5]; 2440 nM in test [6]. In addition, the GI50 in [7] is 1820 nM; in test [8], 1470 nM; in test [9] it was 2290 nM; in test [10] it was 1180 nM. For the same molecule, the TGI came out at 5690 nM in [1]; 3460 nM in test [2]; 7490 nM in [3]; 11600 nM in test [4]; 2910 nM in test [5]; 15400 nM in test [6]. Also, the TGI in test [7] was 5310 nM; in test [8], 3480 nM; in test [9], 11600 nM; in [10] it was 2560 nM.

For the molecule `O=[N+]([O-])/C=C/c1ccc(Cl)cc1[N+](=O)[O-]`, the GI50 was 2420 nM in test [1]; 2520 nM in [2]; 3040 nM in test [3]; 3080 nM in test [4]; 1500 nM in [5]; 3880 nM in test [6]. The GI50 in test [7] is 3340 nM; in test [8], 2650 nM; in [9], 3320 nM; in [10] it was 1550 nM. Also, the TGI in test [1] worked out at 4620 nM; in test [2] it was 5490 nM; in [3], 13400 nM; in test [4] it was 24100 nM; in test [5] it was 3300 nM; in test [6], 13600 nM. The TGI in test [7] is over 100000 nM; in test [8] it was 5910 nM; in test [9] it was 14000 nM; in test [10], 3820 nM.

In the case of `O=C1Nc2ccc3c(c2/C1=C\c1cc2c(cc1Br)OCO2)OCO3`, the GI50 in test [1] was 1240 nM; in test [2], 490 nM; in test [3], 393 nM; in [4] it was 179 nM; in test [5], 369 nM; in [6], 855 nM. Further, the GI50 is 524 nM in test [7], 311 nM in [8], 552 nM in [9] and 191 nM in test [10]. Also, the TGI in test [1] was 3430 nM; in test [2] it was 2110 nM; in test [3], 2070 nM; in test [4], over 35900 nM; in [5], 8170 nM; in test [6], 4870 nM. In addition, the TGI is 3280 nM in [7], 1120 nM in test [8], 7040 nM in test [9] and 2130 nM in [10].

Take `COc1ccc(C(O)c2cc3c(N)c(C(=O)Nc4cccc(Br)c4C)sc3nc2C)cc1` (centres undefined): the GI50 in test [1] is 254 nM; in [2], 135 nM; in test [3], 287 nM; in test [4], 140 nM; in test [5], 157 nM; in test [6] it was 225 nM. The GI50 in [7] is 405 nM; in test [8] it was 131 nM; in [9], 211 nM; in [10], 261 nM. Besides, the TGI in test [1] was over 33300 nM; in test [2] it was 4540 nM; in test [3], over 30200 nM; in test [4], over 33300 nM; in [6], over 23000 nM; in test [7], over 27800 nM. For the same molecule, the TGI is 2880 nM in test [8], over 33300 nM in test [9] and over 33300 nM in [10].

Take `CC1(C)N=C(N)N=C(N)N1c1cccc(CCc2ccccc2)c1`: the GI50 in [1] was 799 nM; in test [2], 552 nM; in test [3], 1290 nM; in [4], 299 nM; in test [5], 429 nM; in [6], 634 nM. The GI50 in [7] was 340 nM; in test [8] it was 1370 nM; in [9], 696 nM; in [10] it was over 100000 nM. For the same molecule, the TGI in test [1] is over 100000 nM; in test [2], over 100000 nM; in test [3], over 100000 nM; in test [4], over 100000 nM; in test [5], 34800 nM; in test [6], over 100000 nM. Besides, the TGI in [7] is 57500 nM; in [8], over 100000 nM; in test [9], over 100000 nM; in test [10], over 100000 nM.
